Test systems include NCI-H522 lung; UO-31 renal; KM12 colon; UACC-62 melanoma; LOX IMVI melanoma; MALME-3M melanoma; OVCAR-3 ovarian; SNB-75 CNS; UACC-257 melanoma.
Test in all cases: NCI-60 cell line screen, 48 h

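Growth conditions: 96-well plates. Treatment: test compound, 48 hours, 5 concentrations. Analysis: linear interpolation between bracketing concentrations; unreached endpoints set to highest concentration. Here, GI50 denotes the concentration required for 50% inhibition of growth. TGI: concentration producing complete growth inhibition.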

For the compound `Cc1cccc(N=Cc2ccc(N(CCC#N)S(=O)(=O)c3ccccc3)cc2C)c1`, the TGI in the assay on NCI-H522 lung, in the assay with UO-31 renal, with KM12 colon, in the assay on UACC-62 melanoma, with LOX IMVI melanoma and in the assay with MALME-3M melanoma was above 100 µM each time. Moreover, the TGI with OVCAR-3 ovarian, with SNB-75 CNS and with UACC-257 melanoma was above 100 µM in each case.
Regarding `O=S1(=O)c2cc(S(=O)(=O)n3ccnc3)ccc2NC2=NCCCN21`, the TGI in the assay with NCI-H522 lung is 30.9 µM; in the assay on UO-31 renal it was above 100 µM; in the assay with KM12 colon, 89.5 µM; in the assay with UACC-62 melanoma it was above 100 µM; in the assay with LOX IMVI melanoma, above 100 µM; in the assay with MALME-3M melanoma it was above 100 µM. In addition, the TGI in the assay with OVCAR-3 ovarian is 47.8 µM; in the assay on SNB-75 CNS it was 88.1 µM; in the assay with UACC-257 melanoma, above 100 µM.
As to `COc1ccc(-c2oc3c(OC)c(OC)c(OC)c(O)c3c(=O)c2OC)cc1O`, the TGI is below 0.01 µM with NCI-H522 lung; 5.81 µM in the assay on UO-31 renal; 10.3 µM with KM12 colon; 19.8 µM in the assay on UACC-62 melanoma; below 0.01 µM with SNB-75 CNS; above 100 µM in the assay on UACC-257 melanoma. Also, the GI50 with UO-31 renal was below 0.01 µM; in the assay on KM12 colon, 0.638 µM; in the assay on UACC-62 melanoma it was below 0.01 µM; with OVCAR-3 ovarian, below 0.01 µM; in the assay on SNB-75 CNS, below 0.01 µM; in the assay on UACC-257 melanoma it was below 0.01 µM.
As to `Cc1ccc(/C=N/NS(=O)(=O)c2ccccc2)cc1C`, the TGI in the assay with UO-31 renal, with KM12 colon, in the assay on UACC-62 melanoma, with LOX IMVI melanoma, with MALME-3M melanoma and in the assay with OVCAR-3 ovarian was above 100 µM throughout. Besides, the TGI with SNB-75 CNS and in the assay with UACC-257 melanoma was above 100 µM throughout.
In the case of `C[N+](C)(C)C1CC([N+](C)(C)C)C2c3ccccc3C21` (stereo not drawn), the TGI with NCI-H522 lung, in the assay with UO-31 renal, in the assay on KM12 colon, in the assay on UACC-62 melanoma, in the assay on LOX IMVI melanoma and in the assay on MALME-3M melanoma was above 100 µM each time. Moreover, the TGI with OVCAR-3 ovarian, in the assay with SNB-75 CNS and in the assay on UACC-257 melanoma was above 100 µM throughout.
With `CN(C)CCN(C)C(=O)c1cccc2cccc(C(=O)O)c12`, the TGI in the assay with UO-31 renal, in the assay with UACC-62 melanoma, in the assay on LOX IMVI melanoma, in the assay on MALME-3M melanoma, in the assay with OVCAR-3 ovarian and with SNB-75 CNS was above 100 µM throughout. For the same compound, the TGI with UACC-257 melanoma is above 100 µM.
Turning to `C/C(=C\C(C[C@](C)(O)C(O)CCC#C[Si](C)(C)C)S(=O)(=O)c1ccccc1)CC/C=C/CO[Si](C)(C)C(C)(C)C` (stereo partly drawn), the TGI with NCI-H522 lung amounted to 33 µM; in the assay on UO-31 renal, 36.4 µM; in the assay with KM12 colon it was 32.6 µM; in the assay with UACC-62 melanoma, 33.9 µM; in the assay with LOX IMVI melanoma, 28.7 µM; in the assay with MALME-3M melanoma, 40.4 µM. The figures for the TGI in the assay with OVCAR-3 ovarian and in the assay with UACC-257 melanoma were 29.6 µM and 32.5 µM, respectively.
For `[Co].[O-]c1cccnc1C=Nc1ccccc1.[OH3+]`, the GI50 in the assay on NCI-H522 lung is 39.3 µM; with UO-31 renal, 56.2 µM; in the assay with KM12 colon, above 100 µM; in the assay with UACC-62 melanoma it was 86.1 µM; in the assay with LOX IMVI melanoma it was above 100 µM; with MALME-3M melanoma it was above 100 µM. For the same compound, the results for the GI50 in the assay with OVCAR-3 ovarian, in the assay with SNB-75 CNS and in the assay with UACC-257 melanoma were above 100 µM, 49.7 µM and above 100 µM, respectively. Moreover, the TGI in the assay on NCI-H522 lung, with UO-31 renal, in the assay with KM12 colon, in the assay with UACC-62 melanoma, in the assay on LOX IMVI melanoma and in the assay with MALME-3M melanoma was above 100 µM each time. Besides, the TGI with OVCAR-3 ovarian, with SNB-75 CNS and in the assay with UACC-257 melanoma was above 100 µM each time.
Take `CCOC(=O)Nc1ccc2c(c1)C(=O)N(CC)c1ccccc1O2`: the GI50 in the assay on NCI-H522 lung is 0.0797 µM; in the assay with UO-31 renal it was 0.379 µM; in the assay with KM12 colon, 0.0661 µM; in the assay with UACC-62 melanoma, 0.101 µM; in the assay on LOX IMVI melanoma it was 0.198 µM; in the assay on MALME-3M melanoma, 31.8 µM. Moreover, the GI50 in the assay with OVCAR-3 ovarian is 0.0788 µM; with SNB-75 CNS it was 0.188 µM; in the assay on UACC-257 melanoma it was 35.6 µM. The TGI in the assay on NCI-H522 lung was 1.09 µM; in the assay with UO-31 renal it was above 100 µM; with KM12 colon it was above 100 µM; with UACC-62 melanoma, above 100 µM; in the assay with LOX IMVI melanoma, above 100 µM; in the assay on MALME-3M melanoma it was above 100 µM. Further, the TGI in the assay on OVCAR-3 ovarian was 0.612 µM; with SNB-75 CNS it was above 100 µM; with UACC-257 melanoma, above 100 µM.
Consider `Cc1[nH]c2ccccc2c1C1=NO/C(=N\O)C(c2c(C)[nH]c3ccccc23)C1` (stereo not drawn), for which the TGI is above 80.5 µM in the assay with UO-31 renal; above 100 µM with KM12 colon; 62.7 µM in the assay with UACC-62 melanoma; above 100 µM with MALME-3M melanoma; 70.7 µM in the assay on OVCAR-3 ovarian; above 100 µM in the assay on SNB-75 CNS. The same compound gave a TGI with UACC-257 melanoma above 100 µM.
Take `O=C(O)CCSC(=O)Nc1cccc2ccccc12`: the TGI in the assay with UO-31 renal, in the assay with KM12 colon, in the assay with UACC-62 melanoma, in the assay with LOX IMVI melanoma, with MALME-3M melanoma and in the assay on OVCAR-3 ovarian was above 100 µM in each case. Also, the TGI with SNB-75 CNS and in the assay on UACC-257 melanoma was above 100 µM throughout.
Regarding `CC(=O)OC1=C2CC[C@@H]3C(CC[C@@]4(C)C3CC[C@@H]4OC(C)=O)[C@@]2(C)CC(C#N)C1=O` (stereo partly drawn), the TGI is above 100 µM with UO-31 renal; above 100 µM in the assay with KM12 colon; 38.9 µM in the assay on UACC-62 melanoma; above 100 µM in the assay on LOX IMVI melanoma; above 100 µM in the assay on MALME-3M melanoma; 53.3 µM in the assay with OVCAR-3 ovarian. Moreover, the TGI with SNB-75 CNS is 72.9 µM; in the assay with UACC-257 melanoma, above 100 µM.
As to `CC(=O)NCc1c(C(N)=O)ncn1Cc1ccccc1`, the TGI in the assay on UACC-62 melanoma, in the assay with LOX IMVI melanoma, with OVCAR-3 ovarian, in the assay on SNB-75 CNS and with UACC-257 melanoma was above 100 µM throughout.
`O=c1c(C(c2ccc([N+](=O)[O-])cc2)c2c(O)c3ccccc3n(-c3ccccc3)c2=O)c(O)c2ccccc2n1-c1ccccc1`: the TGI came to 86.6 µM with NCI-H522 lung; 21.3 µM in the assay on UO-31 renal; 82.5 µM in the assay with KM12 colon; 14.8 µM with UACC-62 melanoma; 27.2 µM with LOX IMVI melanoma; 28.8 µM in the assay with MALME-3M melanoma. In addition, the TGI in the assay on OVCAR-3 ovarian is 70.5 µM.
For `O=C(CC1(O)C(=O)Nc2ccccc21)c1ccc(Cl)cc1Cl` (stereo not drawn), the TGI in the assay with NCI-H522 lung, in the assay on UO-31 renal, in the assay on UACC-62 melanoma, in the assay with LOX IMVI melanoma, in the assay with MALME-3M melanoma and in the assay on OVCAR-3 ovarian was above 100 µM throughout. Besides, the TGI with SNB-75 CNS and with UACC-257 melanoma was above 100 µM throughout.
For `CNS(=O)(=O)NNS(=O)(=O)c1ccc(F)cc1`, the TGI in the assay with NCI-H522 lung, in the assay on UO-31 renal, in the assay with KM12 colon, with UACC-62 melanoma, in the assay on LOX IMVI melanoma and in the assay with OVCAR-3 ovarian was above 100 µM throughout. For the same compound, the TGI with SNB-75 CNS and in the assay with UACC-257 melanoma was above 100 µM each time.
On to `CO/C=C(\Br)c1ccc2c(c1)OCO2`, for which the TGI in the assay with NCI-H522 lung, in the assay with UO-31 renal, in the assay with KM12 colon, in the assay with UACC-62 melanoma, in the assay with MALME-3M melanoma and in the assay with OVCAR-3 ovarian was above 100 µM throughout. Moreover, the TGI in the assay with SNB-75 CNS and in the assay on UACC-257 melanoma was above 100 µM in each case.
As for `COc1ccc(C[C@]23CCC(=O)N2CCc2cc(OC)c(O)cc23)cc1O`, the TGI in the assay with UO-31 renal, with KM12 colon, with UACC-62 melanoma, in the assay on LOX IMVI melanoma, in the assay on MALME-3M melanoma and with OVCAR-3 ovarian was above 100 µM throughout. Also, the TGI in the assay with SNB-75 CNS and in the assay with UACC-257 melanoma was above 100 µM throughout.
Take `Cc1cc2c(=O)c(C)n[nH]c2c(C#N)c1C`: the TGI in the assay with UO-31 renal, in the assay on UACC-62 melanoma, in the assay with LOX IMVI melanoma, in the assay with MALME-3M melanoma, in the assay on OVCAR-3 ovarian and in the assay on SNB-75 CNS was above 100 µM each time. The compound also returned a TGI in the assay on UACC-257 melanoma above 100 µM.
`CCCCCCCC(=O)OCC1OC(n2cc(F)c(=O)[nH]c2=O)C(N)C(O)C1O` (stereo not drawn): the TGI in the assay on NCI-H522 lung, in the assay with UO-31 renal, in the assay on KM12 colon, in the assay on UACC-62 melanoma, with MALME-3M melanoma and with OVCAR-3 ovarian was above 100 µM each time. Further, the TGI with SNB-75 CNS and in the assay with UACC-257 melanoma was above 100 µM in each case.
With `COc1ccc([Se][Se]c2ccc(OC)cc2OC)c(OC)c1`, the TGI is 4 µM with NCI-H522 lung; 5.31 µM in the assay on UO-31 renal; 14.6 µM in the assay with KM12 colon; 4.14 µM in the assay on UACC-62 melanoma; 33.2 µM with MALME-3M melanoma; 20 µM in the assay with OVCAR-3 ovarian. Also, the TGI with SNB-75 CNS came to 3.11 µM; in the assay with UACC-257 melanoma, 5.85 µM.

Source of the values: PubChem BioAssay (NCI).
